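Growth conditions: 96-well plates. Treatment: test compound, 48 hours, 5 concentrations. Analysis: linear interpolation between bracketing concentrations; unreached endpoints set to highest concentration. GI50 = concentration required for 50% inhibition of growth.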 Activity calls are given as the source filed them. Rule as the data show it: active = GI50 up to about 1.1 µM and inactive = higher.
Legend:
Experiment in all cases: growth of human tumour cells (NCI), 48 h
786-0 = tested on: 786-0
A498 = tested on: A498
A549 = tested on: A549
ACHN = tested on: ACHN
CAKI-1 = tested on: CAKI-1
CCRF-CEM = tested on: CCRF-CEM
COLO 205 = tested on: COLO 205
DMS-114 = tested on: DMS-114
DMS-273 = tested on: DMS-273
EKVX = tested on: EKVX
HCC 2998 = tested on: HCC 2998
HCT-116 = tested on: HCT-116
HCT-15 = tested on: HCT-15
HL-60 = tested on: HL-60
HOP-18 = tested on: HOP-18
HOP-92 = tested on: HOP-92
HT-29 = tested on: HT-29
IGROV-1 = tested on: IGROV-1
K562 = tested on: K562
KM-20L2 = tested on: KM-20L2
KM12 = tested on: KM12
LOX IMVI = tested on: LOX IMVI
LXFL 529 = tested on: LXFL 529
M14 = tested on: M14
M19-MEL = tested on: M19-MEL
MOLT-4 = tested on: MOLT-4
Malme-3M = tested on: Malme-3M
NCI-H226 = tested on: NCI-H226
NCI-H23 = tested on: NCI-H23
NCI-H522 = tested on: NCI-H522
OVCAR-3 = tested on: OVCAR-3
OVCAR-4 = tested on: OVCAR-4
OVCAR-5 = tested on: OVCAR-5
OVCAR-8 = tested on: OVCAR-8
RPMI-8226 = tested on: RPMI-8226
RXF 393 = tested on: RXF 393
RXF 631 = tested on: RXF 631
SF-268 = tested on: SF-268
SF-295 = tested on: SF-295
SF-539 = tested on: SF-539
SK-MEL-28 = tested on: SK-MEL-28
SK-MEL-2 = tested on: SK-MEL-2
SK-MEL-5 = tested on: SK-MEL-5
SK-OV-3 = tested on: SK-OV-3
SN12C = tested on: SN12C
SNB-19 = tested on: SNB-19
SNB-75 = tested on: SNB-75
SNB-78 = tested on: SNB-78
SW-620 = tested on: SW-620
TK-10 = tested on: TK-10
U-251 = tested on: U-251
UACC-257 = tested on: UACC-257
UACC-62 = tested on: UACC-62
UO-31 = tested on: UO-31
DLD-1 = tested on: DLD-1
HOP-62 = tested on: HOP-62
NCI-H460 = tested on: NCI-H460

For O=C1C2C3SC(c4cc5ccccc5cc43)C2C(=O)N1c1ccccc1 (stereo not drawn), the GI50 (786-0) was 50.8 µM (inactive), the GI50 (A498) was 41.8 µM (inactive) and the GI50 (A549) was > 100 µM (inactive). For the same compound, the GI50 (ACHN) was 48.5 µM (inactive), the GI50 (CAKI-1) was 45 µM (inactive) and the GI50 (CCRF-CEM) was > 100 µM (inactive). For the same compound, the GI50 (COLO 205) was > 100 µM (inactive), the GI50 (DMS-114) was > 100 µM (inactive) and the GI50 (DMS-273) was > 100 µM (inactive). For the same compound, the GI50 (EKVX) was > 100 µM (inactive), the GI50 (HCC 2998) was > 100 µM (inactive) and the GI50 (HCT-116) was > 100 µM (inactive). For the same compound, the GI50 (HCT-15) was greater than 100 µM, the GI50 (HL-60) was > 100 µM (inactive) and the GI50 (HOP-18) was > 100 µM (inactive). For the same compound, the GI50 (HOP-92) was 30.1 µM (inactive), the GI50 (HT-29) was > 100 µM (inactive) and the GI50 (IGROV-1) was > 100 µM (inactive). The GI50 (K562) was > 100 µM (inactive), the GI50 (KM-20L2) was > 100 µM (inactive) and the GI50 (KM12) was > 100 µM (inactive). The GI50 (LOX IMVI) was > 100 µM (inactive), the GI50 (LXFL 529) was 94.6 µM (inactive) and the GI50 (M14) was > 100 µM (inactive). For the same compound, the GI50 (M19-MEL) was > 100 µM (inactive), the GI50 (MOLT-4) was > 100 µM (inactive) and the GI50 (Malme-3M) was 70.3 µM (inactive). The GI50 (NCI-H226) was > 100 µM (inactive), the GI50 (NCI-H23) was 98.9 µM (inactive) and the GI50 (NCI-H522) was 75.7 µM (inactive). The GI50 (OVCAR-3) was > 100 µM (inactive), the GI50 (OVCAR-4) was 39.4 µM (inactive) and the GI50 (OVCAR-5) was > 100 µM (inactive). The GI50 (OVCAR-8) was 90.6 µM (inactive), the GI50 (RPMI-8226) was > 100 µM (inactive) and the GI50 (RXF 393) was 28.1 µM (inactive). For the same compound, the GI50 (RXF 631) was > 100 µM (inactive), the GI50 (SF-268) was > 100 µM (inactive) and the GI50 (SF-295) was > 100 µM (inactive). The GI50 (SF-539) was 85.3 µM (inactive), the GI50 (SK-MEL-28) was 88.5 µM (inactive) and the GI50 (SK-MEL-2) was 77.1 µM (inactive). For the same compound, the GI50 (SK-MEL-5) was > 100 µM (inactive), the GI50 (SK-OV-3) was > 100 µM (inactive) and the GI50 (SN12C) was > 100 µM (inactive). For the same compound, the GI50 (SNB-19) was 30.7 µM (inactive), the GI50 (SNB-75) was 19.8 µM (inactive) and the GI50 (SNB-78) was 84.5 µM (inactive). The GI50 (SW-620) was > 100 µM (inactive), the GI50 (TK-10) was > 100 µM (inactive) and the GI50 (U-251) was 68.2 µM (inactive). The GI50 (UACC-257) was > 100 µM (inactive), the GI50 (UACC-62) was 95.1 µM (inactive) and the GI50 (UO-31) was > 100 µM (inactive).
In the case of CCCCCN(CCCCC)C(=O)[C@H](CCC(=O)OCc1ccccc1)NC(=O)c1cc2ccccc2[nH]1, the GI50 (786-0) is reported as > 100 µM (inactive), the GI50 (A498) is reported as > 100 µM (inactive) and the GI50 (A549) is reported as > 100 µM (inactive). The GI50 (ACHN) was > 100 µM (inactive), the GI50 (CAKI-1) was > 100 µM (inactive) and the GI50 (CCRF-CEM) was > 100 µM (inactive). For the same compound, the GI50 (COLO 205) was > 100 µM (inactive), the GI50 (DLD-1) was > 100 µM (inactive) and the GI50 (DMS-114) was > 100 µM (inactive). For the same compound, the GI50 (DMS-273) was > 100 µM (inactive), the GI50 (EKVX) was > 100 µM (inactive) and the GI50 (HCC 2998) was > 100 µM (inactive). For the same compound, the GI50 (HCT-116) was > 100 µM (inactive), the GI50 (HCT-15) was greater than 100 µM and the GI50 (HL-60) was > 100 µM (inactive). The GI50 (HOP-18) was > 100 µM (inactive), the GI50 (HOP-62) was > 100 µM (inactive) and the GI50 (HOP-92) was > 100 µM (inactive). The GI50 (HT-29) was > 100 µM (inactive), the GI50 (IGROV-1) was > 100 µM (inactive) and the GI50 (K562) was > 100 µM (inactive). The GI50 (KM-20L2) was > 100 µM (inactive), the GI50 (KM12) was > 100 µM (inactive) and the GI50 (LOX IMVI) was > 100 µM (inactive). The GI50 (LXFL 529) was > 100 µM (inactive), the GI50 (M14) was > 100 µM (inactive) and the GI50 (MOLT-4) was > 100 µM (inactive). The GI50 (Malme-3M) was > 100 µM (inactive), the GI50 (NCI-H226) was > 100 µM (inactive) and the GI50 (NCI-H23) was > 100 µM (inactive). The GI50 (NCI-H460) was > 100 µM (inactive), the GI50 (NCI-H522) was > 100 µM (inactive) and the GI50 (OVCAR-3) was > 100 µM (inactive). The GI50 (OVCAR-4) was > 100 µM (inactive), the GI50 (OVCAR-5) was > 100 µM (inactive) and the GI50 (OVCAR-8) was > 100 µM (inactive). For the same compound, the GI50 (RPMI-8226) was 0.343 µM (active), the GI50 (RXF 393) was > 100 µM (inactive) and the GI50 (RXF 631) was > 100 µM (inactive). The GI50 (SF-268) was > 100 µM (inactive), the GI50 (SF-295) was > 100 µM (inactive) and the GI50 (SF-539) was > 100 µM (inactive). The GI50 (SK-MEL-28) was > 100 µM (inactive), the GI50 (SK-MEL-2) was > 100 µM (inactive) and the GI50 (SK-OV-3) was > 100 µM (inactive). For the same compound, the GI50 (SN12C) was > 100 µM (inactive), the GI50 (SNB-19) was > 100 µM (inactive) and the GI50 (SNB-75) was > 100 µM (inactive). For the same compound, the GI50 (SNB-78) was > 100 µM (inactive), the GI50 (SW-620) was > 100 µM (inactive) and the GI50 (U-251) was > 100 µM (inactive). The GI50 (UACC-257) was > 100 µM (inactive), the GI50 (UACC-62) was > 100 µM (inactive) and the GI50 (UO-31) was > 100 µM (inactive).

Reference: ChEMBL document CHEMBL1201862, “PubChem BioAssay data set” (2004)
